Results taken from patent US20260315452A1, “PROTEASE INHIBITORS AND USES THEREOF” (priority 2023, published 2026).

What follows are molecules tested against SARS-CoV-2 3CLpro (Severe acute respiratory syndrome coronavirus 2, UniProt P0DTD1) (assay: biochemical). Conditions: inhibition of SARS-CoV-2 3CLpro; 15 nM 3CLpro, 25 μM fluorogenic substrate, 37° C.; read-out: Inhibitory Activity (IC50).
With `Cc1c(F)cncc1C(=O)N1CCC2(CCN(c3c(C(=O)NC4CC(F)(F)C4)cc(Br)cc3[N+](=O)[O-])C2)C1` (centres unmarked) [Compound 76, 5-bromo-N-(3,3-difluorocyclobutyl)-2-(7-(5-fluoro-4-methylnicotinoyl)-2,7-diazaspiro[4.4]nonan-2-yl)-3-nitrobenzamide] the IC50 was 1000 to 10000 nM. With `CNC(=O)c1cc(Br)cc([N+](=O)[O-])c1N1CCc2[nH]nc(-c3cncc4ccccc34)c2C1` [Compound 69, 5-bromo-2-(3-(isoquinolin-4-yl)-1,4,6,7-tetrahydro-5H-pyrazolo[4,3-c]pyridin-5-yl)-N-methyl-3-nitrobenzamide] the IC50 was 1000 to 10000 nM. `CC(C)C(Nc1c(-c2ncco2)cc(Br)cc1[N+](=O)[O-])C1CN(C(=O)c2cncc3ccccc23)C1` (centres unmarked) [Compound 65, (3-(1-((4-bromo-2-nitro-6-(oxazol-2-yl)phenyl)amino)-2-methylpropyl)azetidin-1-yl)(isoquinolin-4-yl)methanone] was tested, and the IC50 was 1000 to 10000 nM. For `CNC(=O)c1cc(Br)cc([N+](=O)[O-])c1NC(C(C)C)C1CN(C(=O)c2cncc3ccccc23)C1` (stereo in doubt) [Compound 15, (R)-5-bromo-2-((1-(1-(isoquinoline-4-carbonyl)azetidin-3-yl)-2-methylpropyl)amino)-N-methyl-3-nitrobenzamide], the IC50 was at least 10000 nM. With `O=C(O)c1cc(Br)cc([N+](=O)[O-])c1N[C@@H]1CCCC[C@@H]1NC(=O)c1cncc2ccccc12` [Compound 52, 5-bromo-2-(((1R, 2S)-2-(isoquinoline-4-carboxamido)cyclohexyl)amino)-3-nitrobenzoic acid] the IC50 was 1000 to 10000 nM. With `CNC(=O)c1cc(Br)cc([N+](=O)[O-])c1NC(C1CC1)C1CN(C(=O)c2cncc3ccccc23)C1` (centres unmarked) [Compound 58, 5-bromo-2-((cyclopropyl(1-(isoquinoline-4-carbonyl)azetidin-3-yl)methyl)amino)-N-methyl-3-nitrobenzamide] the IC50 was 100 to 1000 nM. `CNC(=O)c1cc(Br)cc([N+](=O)[O-])c1NC(C(C)C)C1CN(C(=O)c2cncnc2)C1` (centres unmarked) [Compound 71, 5-bromo-N-methyl-2-((2-methyl-1-(1-(pyrimidine-5-carbonyl)azetidin-3-yl)propyl)amino)-3-nitrobenzamide] gave an IC50 of 1000 to 10000 nM. Molecule `CNC(=O)c1cc(Br)cc(C(F)(F)F)c1N[C@H]1CN(C(=O)c2cncc3ccccc23)CC[C@H]1F` [Compound 181, 5-bromo-2-(((3S,4R)-4-fluoro-1-(isoquinoline-4-carbonyl)piperidin-3-yl)amino)-N-methyl-3-(trifluoromethyl)benzamide] has an IC50 of under 100 nM. Molecule `O=C(NC1CC(F)(F)C1)c1cc(Br)cc([N+](=O)[O-])c1N1CCC2(CCN(C(=O)c3cncc(C(F)(F)F)c3)C2)C1` (centres unmarked) [Compound 22, 5-bromo-N-(3,3-difluorocyclobutyl)-3-nitro-2-(7-(5-(trifluoromethyl)nicotinoyl)-2,7-diazaspiro[4.4]nonan-2-yl)benzamide] has an IC50 of 1000 to 10000 nM. `CNC(=O)c1cc(Cl)cc([N+](=O)[O-])c1N[C@H]1CN(C(=O)c2cncc3cc(O)ccc23)CCC1(F)F` [Compound 168, (S)-5-chloro-2-((4,4-difluoro-1-(7-hydroxyisoquinoline-4-carbonyl)piperidin-3-yl)amino)-N-methyl-3-nitrobenzamide] was tested, and the IC50 was under 100 nM. Work on `CNC(=O)c1cc(Br)cc(C(F)(F)F)c1N[C@H]1CN(C(=O)c2cncc3ccccc23)CC[C@@H]1F` [Compound 183, 5-bromo-2-(((3S, 4S)-4-fluoro-1-(isoquinoline-4-carbonyl)piperidin-3-yl)amino)-N-methyl-3-(trifluoromethyl)benzamide] yielded an IC50 of under 100 nM. With `CNC(=O)c1cc(Br)cc([N+](=O)[O-])c1O[C@H]1CN(C(=O)c2cncc3ccccc23)CCC1(F)F` [Compound 180, (S)-5-bromo-2-((4,4-difluoro-1-(isoquinoline-4-carbonyl)piperidin-3-yl)oxy)-N-methyl-3-nitrobenzamide] the IC50 was at least 10000 nM. In the case of `CNC(=O)c1cc(Br)cc([N+](=O)[O-])c1N[C@@H]1CCCC[C@@H]1NC(=O)c1cncc(CN)c1` [Compound 6, 5-(aminomethyl)-N-((1S,2R)-2-((4-bromo-2-(methylcarbamoyl)-6-nitrophenyl)amino)cyclohexyl) nicotinamide], the IC50 is reported as at least 10000 nM. In the case of `CNC(=O)c1cc(Cl)cc([N+](=O)[O-])c1N[C@H]1CN(C(=O)c2cncc3ncn(C)c23)CCC1(F)F` [Compound 105, (S)-5-chloro-2-((4,4-difluoro-1-(1-methyl-1H-imidazo[4,5-c]pyridine-7-carbonyl)piperidin-3-yl)amino)-N-methyl-3-nitrobenzamide], the IC50 is reported as under 100 nM. `CNC(=O)c1cc(Br)cc([N+](=O)[O-])c1N[C@H]1CN(C(=O)C2CC(=O)NC(=O)C2)CCC1(F)F` [Compound 100, (S)-5-bromo-2-((1-(2,6-dioxopiperidine-4-carbonyl)-4,4-difluoropiperidin-3-yl)amino)-N-methyl-3-nitrobenzamide] was tested, and the IC50 was 100 to 1000 nM. Molecule `COc1cncc(C(=O)N2CCC3(CCN(c4c(C(=O)NC5CC(F)(F)C5)cc(Br)cc4[N+](=O)[O-])C3)C2)c1` (centres unmarked) [Compound 23, 5-bromo-N-(3,3-difluorocyclobutyl)-2-(7-(5-methoxynicotinoyl)-2,7-diazaspiro[4.4]nonan-2-yl)-3-nitrobenzamide] has an IC50 of 1000 to 10000 nM. `C[C@@H](NC(=O)c1cc(Br)cc([N+](=O)[O-])c1N1CCC2(CN(C(=O)c3cncc4ccccc34)CC2(F)F)C1)C(F)(F)F` (stereo partly drawn) [Compound 78, 5-bromo-2-(9,9-difluoro-7-(isoquinoline-4-carbonyl)-2,7-diazaspiro[4. 4]nonan-2-yl)-3-nitro-N-((R)-1,1,1-trifluoropropan-2-yl)benzamide] was tested, and the IC50 was under 100 nM. With `CC(C)C(Nc1c(-c2nnc[nH]2)cc(Br)cc1[N+](=O)[O-])C1CN(C(=O)c2cncc3ccccc23)C1` (centres unmarked) [Compound 17, (3-(1-((4-bromo-2-nitro-6-(4H-1,2,4-triazol-3-yl)phenyl)amino)-2-methylpropyl)azetidin-1-yl)(isoquinolin-4-yl)methanone] the IC50 was 100 to 1000 nM. For `CNC(=O)c1cc(Br)cc([N+](=O)[O-])c1N[C@H]1CN(C(=O)c2cncc3cccnc23)CC[C@@H]1F` [Compound 108, 5-bromo-2-(((3S, 4S)-4-fluoro-1-(1,6-naphthyridine-8-carbonyl)piperidin-3-yl)amino)-N-methyl-3-nitrobenzamide], the IC50 was under 100 nM. In the case of `CNC(=O)c1cc(Br)cc([N+](=O)[O-])c1N1CCC2(CCN(C(=O)c3cncnc3)C2)C1` (centres unmarked) [Compound 21], the IC50 is reported as at least 10000 nM. `COC1CN(C(=O)c2cc(Cl)cc([N+](=O)[O-])c2N[C@H]2CN(C(=O)c3cncc4cccnc34)CCC2(F)F)C1` [Compound 111, (S)-(5-chloro-2-((4,4-difluoro-1-(1,6-naphthyridine-8-carbonyl)piperidin-3-yl)amino)-3-nitrophenyl)(3-methoxyazetidin-1-yl)methanone] was tested, and the IC50 was under 100 nM. With `O=C(N[C@H]1CCOC1)c1cc(Br)cc(C(F)(F)F)c1N[C@H]1CN(C(=O)c2cncc3cccnc23)CCC1(F)F` [Compound 109, 5-bromo-2-(((S)-4,4-difluoro-1-(1,6-naphthyridine-8-carbonyl)piperidin-3-yl)amino)-N-((S)-tetrahydrofuran-3-y1)-3-(trifluoromethyl)benzamide] the IC50 was under 100 nM. `O=C(NC1CC(F)(F)C1)c1cc(Br)cc([N+](=O)[O-])c1N1CCC2(CCN(C(=O)c3cncnc3)C2)C1` (centres unmarked) [Compound 115, 5-bromo-N-(3,3-difluorocyclobutyl)-3-nitro-2-(7-(pyrimidine-5-carbonyl)-2,7-diazaspiro[4.4]nonan-2-yl)benzamide] was tested, and the IC50 was at least 10000 nM. In the case of `CNC(=O)c1cc(Br)cc([N+](=O)[O-])c1NC(C(C)C)C1CN(C(=O)c2cncc(C(F)(F)F)c2)C1` (centres unmarked) [Compound 73, 5-bromo-N-methyl-2-((2-methyl-1-(1-(5-(trifluoromethyl)nicotinoyl)azetidin-3-yl)propyl)amino)-3-nitrobenzamide], the IC50 is reported as 1000 to 10000 nM. Work on `CNC(=O)c1cc(Br)cc([N+](=O)[O-])c1N[C@H]1CN(C(=O)C2CC(=O)Nc3ccccc32)CCC1(F)F` (some centres unmarked) [Compound 104] yielded an IC50 of under 100 nM. With `O=C(N[C@@H]1CCNC1)c1cc(Br)cc(C(F)(F)F)c1N[C@H]1CN(C(=O)c2cncc3ccccc23)CCC1(F)F` [Compound 160, 5-bromo-2-[[(3S)-4,4-difluoro-1-(isoquinoline-4-carbonyl)-3-piperidyl]amino]-N-[(3R)-pyrrolidin-3-yl]-3-(trifluoromethyl)benzamide] the IC50 was under 100 nM. With `CNC(=O)c1cc(Cl)cc([N+](=O)[O-])c1N[C@H]1CN(C(=O)c2cncc3ncccc23)CCC1(F)F` [Compound 176, (S)-5-chloro-2-((4,4-difluoro-1-(1,7-naphthyridine-5-carbonyl)piperidin-3-yl)amino)-N-methyl-3-nitrobenzamide] the IC50 was under 100 nM. In the case of `CNC(=O)c1cc(Br)cc([N+](=O)[O-])c1N[C@H]1CN(C(=O)c2cnc3ccccn23)CCC1(F)F` [Compound 101, (S)-5-bromo-2-((4,4-difluoro-1-(imidazo[1,2-a]pyridine-3-carbonyl)piperidin-3-yl)amino)-N-methyl-3-nitrobenzamide], the IC50 is reported as under 100 nM. `CNC(=O)c1cc(Cl)cc([N+](=O)[O-])c1N[C@H]1CN(C(=O)c2cncc3cnn(C)c23)CCC1(F)F` [Compound 106, (S)-5-chloro-2-((4,4-difluoro-1-(1-methyl-1H-pyrazolo[4,3-c]pyridine-7-carbonyl)piperidin-3-yl)amino)-N-methyl-3-nitrobenzamide] gave an IC50 of under 100 nM. `CN(C)C(=O)c1cc(Cl)cc([N+](=O)[O-])c1N[C@H]1CN(C(=O)c2cncc3ccccc23)CC[C@@H]1F` [Compound 177] was tested, and the IC50 was under 100 nM. For `CNC(=O)c1cc(Cl)cc([N+](=O)[O-])c1N[C@H]1CN(C(=O)c2cncc(Cl)c2C)CCC1(F)F` [Compound 169, (S)-5-chloro-2-((1-(5-chloro-4-methylnicotinoyl)-4,4-difluoropiperidin-3-yl)amino)-N-methyl-3-nitrobenzamide], the IC50 was under 100 nM. In the case of `O=C(c1cc(Br)cc(C(F)(F)F)c1N[C@H]1CN(C(=O)c2cncc3ccccc23)CCC1(F)F)N1CC(O)C1` [Compound 173, (S)-(5-bromo-2-((4,4-difluoro-1-(isoquinoline-4-carbonyl)piperidin-3-yl)amino)-3-(trifluoromethyl)phenyl)(3-hydroxyazetidin-1-yl)methanone], the IC50 is reported as under 100 nM.
